# Test results from patent US8546338B2, “Self-assembling hydrogels based on dicephalic peptide amphiphiles” (Johnson & Johnson Consumer Companies, Inc., priority 2010, dated 2013).
# Where a SMILES comes first, the peptide text is derived from it. Where no end group is shown, it is not given here. The star is where a group is joined. Palmitoyl = CCCCCCCCCCCCCCCC(=O)*
# Assays:
# Format in all cases: physicochemical
# [1] = Gelation experiments: inversion test for self-supporting hydrogels; conditions: for Gelation (self-supporting gel on inversion), DMEM: DPA solution in water mixed 1:1 with DMEM; for Gelation (self-supporting gel on inversion), DMEM / Concentration at which gel forms, DMEM: no calcium added; for Gelation (self-supporting gel on inversion), PBS / Gelation (self-supporting gel on inversion), Water: final concentrations 1, 2 and 4 weight percent tested; for Concentration at which gel forms, DMEM: mixed with DMEM; for Gelation under all conditions tested: 2-4 wt %, water, DMEM and DMEM plus calcium; for Gelation (self-supporting gel on inversion), PBS / Gelation under all conditions tested / Concentration at which gel forms, PBS: PBS; for Gelation (self-supporting gel on inversion), Calcium added: DMEM plus 10 μl of 100 mg/cc calcium chloride solution; for Concentration at which gel forms, Calcium added: DMEM with calcium chloride added
# Method: Inversion tests were performed to determine qualitatively under which conditions the various DPAs formed self-supporting hydrogels. The various types of DPAs were tested by dissolving them in ultrapure water (>18 MΩ resistivity) at double the desired final concentration followed by mixing in a 1:1 ratio with different liquid mediums. Gelation was deemed to have occurred if the gel supported its own weight upon inverting the vial (FIG. 3A and FIG. 3B). Gelation was tested at final concentrations of 1, 2 and 4 weight percent. We tested phosphate buffered saline (PBS), and Dulbecco's modified eagle media (DMEM) as liquid medium. Typical scale is 100 μl each of DPA solution in water and mixing medium but other scales have been tested. Finally, if no spontaneous gelation occurs, 10 μl of 100 mg/cc calcium chloride solution was added to induce gelation.
# [2] = Oscillating rheology, strain sweep; conditions: 2 wt % gels in DMEM
# Method: (§1) Oscillating rheology by the parallel plates method (radius=25 mm) was performed on 400 μl gels to assess the mechanical strengths of gels. Time sweeps were performed to evaluate kinetics of formation at a constant strain rate of 1% and frequency of 1 rad/s. Strain sweeps were performed ranging from 1-100% strain in increments of 2% at a constant frequency of 1 rad/s. Cross-over of G′ and G″ was used to determine the gel point and point of breakdown. Time sweeps were initiated immediately after mixing the solutions that lead to DPA hydrogel formation. In the strain sweeps, the gels were allowed to form on the plate for 30 minutes before the measurement is initiated.
# Strains sweeps were performed on 2 wt % Gly-Phe-Gly-Phe-Gly-Phe-Gly-Gln-Gln-Ser (SEQ ID NO: 8), Gly-Phe-Gly-Phe-Gly-Phe-Gly-Gln-Gly-Ser (SEQ ID NO: 12) and Gly-Phe-Gly-Phe-Gly-Phe-Gly-Asn-Asn-Ser (SEQ ID NO: 11) gels in DMEM (FIG. 8). Gels were allowed to form for 30 minutes before the experiment was initiated.
# [3] = Oscillating rheology, time sweep (kinetics of formation); conditions: for Gel point after mixing: 2 wt % gels in DMEM
# Method: as §1
# The gelation process was initiated on the plate at 25° C. by the addition of 10 μl of 100 mg/ml calcium chloride solution to a solution of the DPA in DMEM.
# [4] = listed as linear peptide amphiphile analogue
Compound,"Gelation (self-supporting gel on inversion), DMEM [1]","Gelation (self-supporting gel on inversion), PBS [1]","Gelation (self-supporting gel on inversion), Water ([1]; in water)","Concentration at which gel forms, DMEM [1] [%]","Gelation (self-supporting gel on inversion), Calcium added [1]",also measured
CCCCCCCCCCCCCCCC(=O)NC(C(=O)NCC(=O)N[C@@H](Cc1ccccc1)C(=O)NCC(=O)N[C@@H](Cc1ccccc1)C(=O)NCC(=O)N[C@@H](Cc1ccccc1)C(=O)NCC(=O)NCC(=O)N[C@@H](CCC(N)=O)C(=O)N[C@@H](CO)C(=O)O)C(=O)NCC(=O)N[C@@H](Cc1ccccc1)C(=O)NCC(=O)N[C@@H](Cc1ccccc1)C(=O)NCC(=O)N[C@@H](Cc1ccccc1)C(=O)NCC(=O)NCC(=O)N[C@@H](CCC(N)=O)C(=O)N[C@@H](CO)C(=O)O [Gly-Phe-Gly-Phe-Gly-Phe-Gly-Gly-Gln-Ser],"Yes,",No,No,2,–,–
"GFGFGFGQQS-OH [Gly-Phe-Gly-Phe-Gly-Phe-Gly-Gln-Gln-Ser, reference compound]",No,No,No,–,No,Gelation under all conditions tested [1]: did not form any gels
CCCCCCCCCCCCCCCC(=O)NCC(=O)N[C@@H](Cc1ccccc1)C(=O)NCC(=O)N[C@@H](Cc1ccccc1)C(=O)NCC(=O)N[C@@H](Cc1ccccc1)C(=O)NCC(=O)N[C@@H](CCC(N)=O)C(=O)N[C@@H](CCC(N)=O)C(=O)N[C@@H](CO)C(=O)O [reference compound] (Palmitoyl-GFGFGFGQQS-OH),No,No,No,–,"Yes,","Gelation (self-supporting gel on inversion), Calcium added [1, 4]: could be gelled; Concentration at which gel forms, Calcium added [1]: 2%; Gelation (self-supporting gel on inversion), DMEM [1, 4]: did not form gels; Gelation (self-supporting gel on inversion), PBS [1, 4]: did not form gels; Gelation (self-supporting gel on inversion), Water ([1]; in water, listed as linear peptide amphiphile analogue): did not form gels"
CCCCCCCCCCCCCCCC(=O)NC(C(=O)NCC(=O)N[C@@H](Cc1ccccc1)C(=O)NCC(=O)N[C@@H](Cc1ccccc1)C(=O)NCC(=O)N[C@@H](Cc1ccccc1)C(=O)NCC(=O)N[C@@H](CCC(N)=O)C(=O)NCC(=O)N[C@@H](CO)C(=O)O)C(=O)NCC(=O)N[C@@H](Cc1ccccc1)C(=O)NCC(=O)N[C@@H](Cc1ccccc1)C(=O)NCC(=O)N[C@@H](Cc1ccccc1)C(=O)NCC(=O)N[C@@H](CCC(N)=O)C(=O)NCC(=O)N[C@@H](CO)C(=O)O [Gly-Phe-Gly-Phe-Gly-Phe-Gly-Gln-Gly-Ser],"Yes,","Yes,",No,2,–,"Concentration at which gel forms, PBS [1]: 2%; Gelation characteristics, qualitative comparison ([1]; compared to the SEQ ID NO: 8 DPA): formed more rapidly and appears to be stronger; Strain at which gel re-crosses the transition point (breakdown) ([2]; formed for 30 minutes): 99 % strain; Strain at which gel re-crosses the transition point (breakdown) ([2]; formed for 30 minutes, listed as Gln-Gly-Ser (SEQ ID NO: 30)): ~100 % strain; Gel point after mixing [3]: instantaneous"
CCCCCCCCCCCCCCCC(=O)NC(C(=O)NCC(=O)N[C@@H](Cc1ccccc1)C(=O)NCC(=O)N[C@@H](Cc1ccccc1)C(=O)NCC(=O)N[C@@H](Cc1ccccc1)C(=O)NCC(=O)N[C@@H](CC(N)=O)C(=O)N[C@@H](CC(N)=O)C(=O)N[C@@H](CO)C(=O)O)C(=O)NCC(=O)N[C@@H](Cc1ccccc1)C(=O)NCC(=O)N[C@@H](Cc1ccccc1)C(=O)NCC(=O)N[C@@H](Cc1ccccc1)C(=O)NCC(=O)N[C@@H](CC(N)=O)C(=O)N[C@@H](CC(N)=O)C(=O)N[C@@H](CO)C(=O)O [Gly-Phe-Gly-Phe-Gly-Phe-Gly-Asn-Asn-Ser],"Yes,","Yes,","Yes,",2,–,"Concentration at which gel forms, PBS [1]: 4%; Concentration at which gel forms, Water ([1]; in water): 2%; Initial strength in strain sweep, comparison [2]: highest initial strength; Strain at which decline in properties starts ([2]; formed for 30 minutes): 15 % strain; Strain at which gel re-crosses the transition point (breakdown) ([2]; formed for 30 minutes): 42 % strain; Strain at which gel re-crosses the transition point (breakdown) ([2]; formed for 30 minutes, listed as Asn-Asn-Ser (SEQ ID NO: 29)): 40 % strain; Gel point after mixing [3]: instantaneous; Rheological properties in kinetics of formation experiment, comparison ([3]; polar, non-charged solubility enhancing regions compared): highest rheological properties"
CCCCCCCCCCCCCCCC(=O)NC(C(=O)NCC(=O)N[C@@H](Cc1ccc(O)cc1)C(=O)NCC(=O)N[C@@H](Cc1ccc(O)cc1)C(=O)NCC(=O)N[C@@H](Cc1ccc(O)cc1)C(=O)NCC(=O)N[C@@H](CCC(N)=O)C(=O)N[C@@H](CCC(N)=O)C(=O)N[C@@H](CO)C(=O)O)C(=O)NCC(=O)N[C@@H](Cc1ccc(O)cc1)C(=O)NCC(=O)N[C@@H](Cc1ccc(O)cc1)C(=O)NCC(=O)N[C@@H](Cc1ccc(O)cc1)C(=O)NCC(=O)N[C@@H](CCC(N)=O)C(=O)N[C@@H](CCC(N)=O)C(=O)N[C@@H](CO)C(=O)O [Gly-Tyr-Gly-Tyr-Gly-Tyr-Gly-Gln-Gln-Ser],does not gel and No,does not gel and No,does not gel and No,–,does form gels and Yes,"Concentration at which gel forms, Calcium added [1]: 2%"
CCCCCCCCCCCCCCCC(=O)NC(C(=O)NCC(=O)N[C@@H](Cc1ccccc1)C(=O)NCC(=O)N[C@@H](Cc1ccccc1)C(=O)NCC(=O)N[C@@H](Cc1ccccc1)C(=O)NCC(=O)NCC(=O)N[C@@H](CC(N)=O)C(=O)N[C@@H](CO)C(=O)O)C(=O)NCC(=O)N[C@@H](Cc1ccccc1)C(=O)NCC(=O)N[C@@H](Cc1ccccc1)C(=O)NCC(=O)N[C@@H](Cc1ccccc1)C(=O)NCC(=O)NCC(=O)N[C@@H](CC(N)=O)C(=O)N[C@@H](CO)C(=O)O [Gly-Phe-Gly-Phe-Gly-Phe-Gly-Gly-Asn-Ser],"Yes,",No,No,2,–,–
CCCCCCCCCCCCCCCC(=O)NC(C(=O)NCC(=O)N[C@@H](Cc1ccccc1)C(=O)NCC(=O)N[C@@H](Cc1ccccc1)C(=O)NCC(=O)N[C@@H](Cc1ccccc1)C(=O)NCC(=O)N[C@@H](CC(N)=O)C(=O)NCC(=O)N[C@@H](CO)C(=O)O)C(=O)NCC(=O)N[C@@H](Cc1ccccc1)C(=O)NCC(=O)N[C@@H](Cc1ccccc1)C(=O)NCC(=O)N[C@@H](Cc1ccccc1)C(=O)NCC(=O)N[C@@H](CC(N)=O)C(=O)NCC(=O)N[C@@H](CO)C(=O)O [Gly-Phe-Gly-Phe-Gly-Phe-Gly-Asn-Gly-Ser],"Yes,",No,No,2,–,–
CCCCCCCCCCCCCCCC(=O)NC(C(=O)NCC(=O)N[C@@H](Cc1c[nH]c2ccccc12)C(=O)NCC(=O)N[C@@H](Cc1c[nH]c2ccccc12)C(=O)NCC(=O)N[C@@H](Cc1c[nH]c2ccccc12)C(=O)NCC(=O)N[C@@H](CCC(N)=O)C(=O)N[C@@H](CCC(N)=O)C(=O)N[C@@H](CO)C(=O)O)C(=O)NCC(=O)N[C@@H](Cc1c[nH]c2ccccc12)C(=O)NCC(=O)N[C@@H](Cc1c[nH]c2ccccc12)C(=O)NCC(=O)N[C@@H](Cc1c[nH]c2ccccc12)C(=O)NCC(=O)N[C@@H](CCC(N)=O)C(=O)N[C@@H](CCC(N)=O)C(=O)N[C@@H](CO)C(=O)O [Gly-Trp-Gly-Trp-Gly-Trp-Gly-Gln-Gln-Ser],No,No,No,–,No,Gelation under all conditions tested [1]: no gelation was observed
